As usually defined, the viability is a read-out of living cells in per cent, often relative to untreated cells.

This series deals with NCI-H1155 (lung cancer cells). The experiment in a line: CytoX cell viability assay, NCI-H1155. The class given is cell-based. As to conditions: for viability at 0.01 µM / viability at 0.5 µM: Homo sapiens, NCI-H1155; for cytotoxic activity against cancer cells, H1155 cells (in words): (6+6) bicyclic heteroaryl compared to (6+5) bicyclic heteroaryl (Compounds 56-58 and 62-70). How it is done: The survival rate of NCI-H1155 (lung cancer cells) was measured using the CytoX cell viability assay kit (LPS solution, #CYT3000). NCI-H1155 cells were inoculated into 12-well plates. Afterwards, the cells were treated with each compound of the present disclosure and a comparative substance (CC-90009) at concentrations of 10 nM and 500 nM for 72 hours. Then, CytoX solution was added to the cells, incubated for one hour, and the absorbance of each well was read at 450 nm using a microplate reader to calculate the % viability, and the measurements are summarized in Table 2

Regarding `O=C1CCC(N2Cc3cc(CNC(=O)C(F)(F)c4ccc(Cl)cc4)ccc3C2=O)C(=O)N1` (stereo not shown) [CC-90009, reference compound], the “NCI-H1155 (% viability) at 10 nM” value (10 nM, 72 hours) was 85.0%. Where the note is “500 nM, 72 hours”, the “NCI-H1155 (% viability) at 500 nM” value was found to be 23.5%.

`O=C1CCC(N2Cc3cc(CNC(=O)c4cc5ccccc5o4)ccc3C2=O)C(=O)N1` (stereo not shown) [Compound 56, N-((2-(2,6-Dioxopiperidin-3-yl)-1-oxoisoindolin-5-yl)methyl)benzofuran-2-carboxamide]: the viability at 0.01 µM (10 nM, 72 hours) came to 29.8%. For the same compound, the viability at 0.5 µM (500 nM, 72 hours) was found to be 5.94%.

Take `COc1ccc2[nH]c(C(=O)NCc3ccc4c(c3)CN(C3CCC(=O)NC3=O)C4=O)cc2c1` (stereo not shown) [Compound 57, N-((2-(2,6-Dioxopiperidin-3-yl)-1-oxoisoindolin-5-yl)methyl)-5-methoxy-1H-indole-2-carboxamide]: the viability at 0.01 µM (10 nM, 72 hours) is 83.8%. In addition, the viability at 0.5 µM (500 nM, 72 hours) was found to be 21.2%.

`O=C1CCC(N2Cc3cc(CNC(=O)c4cc5ccccc5s4)ccc3C2=O)C(=O)N1` (stereo not shown) [Compound 58, N-((2-(2,6-Dioxopiperidin-3-yl)-1-oxoisoindolin-5-yl)methyl)benzo[b]thiophene-2-carboxamide]: the viability at 0.01 µM (10 nM, 72 hours) is 4.31%. Also, the viability at 0.5 µM (500 nM, 72 hours) amounted to 2.96%.

As to `O=C1CCC(N2Cc3cc(CNC(=O)c4cnc5cc(Cl)ccc5c4O)ccc3C2=O)C(=O)N1` (stereo not shown) [Compound 59, 7-chloro-N-((2-(2,6-dioxopiperidin-3-yl)-1-oxoisoindolin-5-yl)methyl)-4-hydroxyquinoline-3-carboxamide], the “cytotoxic activity against cancer cells, H1155 cells (in words)” value (from here on “cytotoxic activity against cancer cells”) is “less cytotoxic activity”. Besides, for the setting “10 nM, 72 hours”, the viability at 0.01 µM was determined as 102%. Moreover, where the note is “500 nM, 72 hours”, the viability at 0.5 µM was 40.1%.

With `O=C1CCC(N2Cc3cc(CNC(=O)c4cc5ccccc5oc4=O)ccc3C2=O)C(=O)N1` (stereo not shown) [Compound 60, N-((2-(2,6-Dioxopiperidin-3-yl)-1-oxoisoindolin-5-yl)methyl)-2-oxo-2H-cromene-3-carboxamide], the “cytotoxic activity against cancer cells” value was “less cytotoxic activity”. Under “10 nM, 72 hours”, the viability at 0.01 µM stood at 82%. The viability at 0.5 µM (500 nM, 72 hours) is 22.3%.

As for `O=C1CCC(N2Cc3cc(CNC(=O)c4cnnc5ccccc45)ccc3C2=O)C(=O)N1` (stereo not shown) [Compound 61, N-((2-(2,6-Dioxopiperidin-3-yl)-1-oxoisoindolin-5-yl)methyl)cinnoline-4-carboxamide], the “cytotoxic activity against cancer cells” value was “less cytotoxic activity”. In addition, the viability at 0.01 µM (10 nM, 72 hours) turned out to be 96.8%. Where the note is “500 nM, 72 hours”, the viability at 0.5 µM stood at 87.2%.

Consider `Cc1c(C(=O)NCc2ccc3c(c2)CN(C2CCC(=O)NC2=O)C3=O)nn(CC(C)C)c1-c1ccc(Cl)cc1` (stereo not shown) [Compound 62, 5-(4-Chlorophenyl)-N-((2-(2,6-dioxopiperidin-3-yl)-1-oxoisoindolin-5-yl)methyl)-1-isobutyl-4-methyl-1H-pyrazole-3-carboxamide], for which, where the note is “10 nM, 72 hours”, the viability at 0.01 µM came out at 18.9%. Besides, the viability at 0.5 µM (500 nM, 72 hours) stood at 9.56%.

For `COc1ccc2sc(C(=O)NCc3ccc4c(c3)CN(C3CCC(=O)NC3=O)C4=O)cc2c1` (stereo not shown) [Compound 65, N-((2-(2,6-Dioxopiperidin-3-yl)-1-oxoisoindolin-5-yl)methyl)-5-methoxybenzo[b]thiophene-2-carboxamide], for the setting “10 nM, 72 hours”, the viability at 0.01 µM was 31.7%. Also, for the setting “500 nM, 72 hours”, the viability at 0.5 µM came to 23.4%.

With `Cc1ccc2cc(C(=O)NCc3ccc4c(c3)CN(C3CCC(=O)NC3=O)C4=O)sc2c1` (stereo not shown) [Compound 66, N-((2-(2,6-Dioxopiperidin-3-yl)-1-oxoisoindolin-5-yl)methyl)-6-methylbenzo[b]thiophene-2-carboxamide], the viability at 0.01 µM (10 nM, 72 hours) came to 32.1%. In addition, where the note is “500 nM, 72 hours”, the viability at 0.5 µM was determined as 26.1%.

With `Cc1ccc2c(Cl)c(C(=O)NCc3ccc4c(c3)CN(C3CCC(=O)NC3=O)C4=O)sc2c1` (stereo not shown) [Compound 67, 3-Chloro-N-((2-(2,6-dioxopiperidin-3-yl)-1-oxoisoindolin-5-yl)methyl)-6-methylbenzo[b]thiophene-2-carboxamide], under “10 nM, 72 hours”, the viability at 0.01 µM was found to be 26.1%. For the same compound, the viability at 0.5 µM (500 nM, 72 hours) was 24.4%.

On to `COc1ccc2c(Cl)c(C(=O)NCc3ccc4c(c3)CN(C3CCC(=O)NC3=O)C4=O)sc2c1` (stereo not shown) [Compound 68, 3-Chloro-N-((2-(2,6-dioxopiperidin-3-yl)-1-oxoisoindolin-5-yl)methyl)-6-methoxybenzo[b]thiophene-2-carboxamide], for which the viability at 0.01 µM (10 nM, 72 hours) amounted to 29.9%. For the same compound, the viability at 0.5 µM (500 nM, 72 hours) was found to be 26.4%.

For the compound `O=C1CCC(N2Cc3cc(CNC(=O)c4cc5cccc(C(F)(F)F)c5s4)ccc3C2=O)C(=O)N1` (stereo not shown) [Compound 71, N-((2-(2,6-Dioxopiperidin-3-yl)-1-oxoisoindolin-5-yl)methyl)-7-(trifluoromethyl)benzo[b]thiophene-2-carboxamide], the viability at 0.01 µM (10 nM, 72 hours) was 24.2%. Also, the viability at 0.5 µM (500 nM, 72 hours) came to 24.4%.

In the case of `O=C1CCC(N2Cc3cc(CNC(=O)c4sc5cc(C(F)(F)F)ccc5c4Cl)ccc3C2=O)C(=O)N1` (stereo not shown) [Compound 72, 3-chloro-N-((2-(2,6-dioxopiperidin-3-yl)-1-oxoisoindolin-5-yl)methyl)-6-(trifluoromethyl)benzo[b]thiophene-2-carboxamide], the viability at 0.01 µM (10 nM, 72 hours) was 33%. The viability at 0.5 µM (500 nM, 72 hours) was 24.6%.

On to `O=C1CCC(N2Cc3cc(CNC(=O)c4cc5cc(C(F)(F)F)ccc5s4)ccc3C2=O)C(=O)N1` (stereo not shown) [Compound 73, N-((2-(2,6-Dioxopiperidin-3-yl)-1-oxoisoindolin-5-yl)methyl)-5-(trifluoromethyl)benzo[b]thiophene-2-carboxamide], for which the viability at 0.01 µM (10 nM, 72 hours) came out at 40.4%. The viability at 0.5 µM (500 nM, 72 hours) is 26%.

In the case of `COc1cccc2sc(C(=O)NCc3ccc4c(c3)CN(C3CCC(=O)NC3=O)C4=O)cc12` (stereo not shown) [Compound 74, N-((2-(2,6-Dioxopiperidin-3-yl)-1-oxoisoindolin-5-yl)methyl)-4-methoxybenzo[b]thiophene-2-carboxamide], the viability at 0.01 µM (10 nM, 72 hours) was found to be 26.6%. Moreover, the viability at 0.5 µM (500 nM, 72 hours) turned out to be 25.4%.

`Cc1c(C(=O)NCc2ccc3c(c2)CN(C2CCC(=O)NC2=O)C3=O)sc2ccc(Cl)cc12` (stereo not shown) [Compound 75, 5-Chloro-N-((2-(2,6-dioxopiperidin-3-yl)-1-oxoisoindolin-5-yl)methyl)-3-methylbenzo[b]thiophene-2-carboxamide]: where the note is “10 nM, 72 hours”, the viability at 0.01 µM turned out to be 32.1%. The viability at 0.5 µM (500 nM, 72 hours) was 24.5%.

On to `Cc1c(C(=O)NCc2ccc3c(c2)CN(C2CCC(=O)NC2=O)C3=O)sc2ccccc12` (stereo not shown) [Compound 76, N-((2-(2,6-Dioxopiperidin-3-yl)-1-oxoisoindolin-5-yl)methyl)-3-methylbenzo[b]thiophene-2-carboxamide], for which the viability at 0.01 µM (10 nM, 72 hours) amounted to 28%. For the same compound, where the note is “500 nM, 72 hours”, the viability at 0.5 µM was 26.3%.

Consider `Cc1c(C(=O)NCc2ccc3c(c2)CN(C2CCC(=O)NC2=O)C3=O)sc2cccc(Cl)c12` (stereo not shown) [Compound 77, 4-Chloro-N-((2-(2,6-dioxopiperidin-3-yl)-1-oxoisoindolin-5-yl)methyl)-3-methylbenzo[b]thiophene-2-carboxamide], for which, for the setting “10 nM, 72 hours”, the viability at 0.01 µM came out at 24%. The viability at 0.5 µM (500 nM, 72 hours) was found to be 24%.

Turning to `Cc1c(C(=O)NCc2ccc3c(c2)CN(C2CCC(=O)NC2=O)C3=O)sc2c(Cl)cccc12` (stereo not shown) [Compound 78, 7-Chloro-N-((2-(2,6-dioxopiperidin-3-yl)-1-oxoisoindolin-5-yl)methyl)-3-methylbenzo[b]thiophene-2-carboxamide], the viability at 0.01 µM (10 nM, 72 hours) amounted to 15.7%. Also, under “500 nM, 72 hours”, the viability at 0.5 µM was 15.6%.

For `Cc1c(C(=O)NCc2ccc3c(c2)CN(C2CCC(=O)NC2=O)C3=O)sc2cccc(F)c12` (stereo not shown) [Compound 79, N-((2-(2,6-Dioxopiperidin-3-yl)-1-oxoisoindolin-5-yl)methyl)-4-fluoro-3-methylbenzo[b]thiophene-2-carboxamide], under “10 nM, 72 hours”, the viability at 0.01 µM worked out at 16.2%. For the same compound, the viability at 0.5 µM (500 nM, 72 hours) worked out at 15.2%.

`COc1cccc2cc(C(=O)NCc3ccc4c(c3)CN(C3CCC(=O)NC3=O)C4=O)oc12` (stereo not shown) [Compound 82, N-((2-(2,6-Dioxopiperidin-3-yl)-1-oxoisoindolin-5-yl)methyl)-7-methoxybenzofuran-2-carboxamide]: the viability at 0.01 µM (10 nM, 72 hours) was 39%. The viability at 0.5 µM (500 nM, 72 hours) is 17.6%.

As to `COc1ccc2cc(C(=O)NCc3ccc4c(c3)CN(C3CCC(=O)NC3=O)C4=O)oc2c1` (stereo not shown) [Compound 83, N-((2-(2,6-Dioxopiperidin-3-yl)-1-oxoisoindolin-5-yl)methyl)-6-methoxybenzofuran-2-carboxamide], the viability at 0.01 µM (10 nM, 72 hours) is 26.1%. For the same compound, the viability at 0.5 µM (500 nM, 72 hours) is 15.9%.

Consider `Cc1ccc2c(C)c(C(=O)NCc3ccc4c(c3)CN(C3CCC(=O)NC3=O)C4=O)oc2c1` (stereo not shown) [Compound 84, N-((2-(2,6-Dioxopiperidin-3-yl)-1-oxoisoindolin-5-yl)methyl)-3,6-dimethylbenzofuran-2-carboxamide], for which the viability at 0.01 µM (10 nM, 72 hours) amounted to 28.9%. The viability at 0.5 µM (500 nM, 72 hours) amounted to 18.2%.

On to `Cc1c(C(=O)NCc2ccc3c(c2)CN(C2CCC(=O)NC2=O)C3=O)oc2ccc(Br)cc12` (stereo not shown) [Compound 85, 5-bromo-N-((2-(2,6-dioxopiperidin-3-yl)-1-oxoisoindolin-5-yl)methyl)-3-methylbenzofuran-2-carboxamide], for which the viability at 0.01 µM (10 nM, 72 hours) was 36.6%. The viability at 0.5 µM (500 nM, 72 hours) was 18.6%.

For `O=C1CCC(N2Cc3cc(CNC(=O)c4cc5c(ccc6ccccc65)o4)ccc3C2=O)C(=O)N1` (stereo not shown) [Compound 86, N-((2-(2,6-Dioxopiperidin-3-yl)-1-oxoisoindolin-5-yl)methyl)naphtho[2,1-b]furan-2-carboxamide], for the setting “10 nM, 72 hours”, the viability at 0.01 µM came out at 14.7%. The viability at 0.5 µM (500 nM, 72 hours) was determined as 14.7%.

Source of the values: US20250346575A1, “ISOINDOLINONE DERIVATIVE HAVING GLUTARIMIDE MOTHER NUCLEUS, AND USE THEREOF” (KOREA RESEARCH INSTITUTE OF CHEMICAL TECHNOLOGY, priority 2021, published 2025).
